The values below come from patent publication US6833372B2, “Non-peptide GnRH agents, Pharmaceutical compositions, and methods for their use” (Pfizer, Inc., priority 2002, dated 2004).

Molecules are shown by their SMILES. Several values for one entry are separate records, joined by “and”; a condition that tells them apart may be missing. Identical values can stand only once.

One data set addresses T1, human GnRH receptors (Homo sapiens, UniProt P30968).
T1 construct: expressed in transfected cells; host or cells: HEK 293 cells, stably transfected; membranes
T1 sequence (P30968 1-328): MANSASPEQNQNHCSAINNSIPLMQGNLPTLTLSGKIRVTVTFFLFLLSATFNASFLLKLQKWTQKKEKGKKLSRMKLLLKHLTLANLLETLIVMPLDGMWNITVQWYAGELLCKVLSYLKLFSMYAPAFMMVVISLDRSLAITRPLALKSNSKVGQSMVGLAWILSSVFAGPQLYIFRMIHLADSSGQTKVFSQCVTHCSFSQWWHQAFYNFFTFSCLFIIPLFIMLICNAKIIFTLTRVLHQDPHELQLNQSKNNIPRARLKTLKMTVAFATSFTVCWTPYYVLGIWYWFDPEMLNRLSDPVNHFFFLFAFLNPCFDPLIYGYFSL
Description: Radioligand binding: inhibition of 125I-GnRH-A binding to human GnRH receptor membranes. The following applies: HEK 293 cell membranes. Put shortly: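 Membranes from rat pituitaries, or HEK 293 cells stably expressing mouse or human receptor, incubated 1 hour at room temperature with ~0.04-0.06 nM radioligand (HEPES pH 7.4, EDTA, MgCl2, BSA) and competitor at 0.1-10,000 nM. Bound ligand collected by GF/C filtration and counted; Ki derived from IC50 by Cheng-Prusoff.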

A short description of data set [1]: In vitro metabolism: disappearance of parent compound in rat liver microsomes (male, female). The data set is classed as in vitro ADME. The following applies: 5 uM compound, 30 minutes 37° C.; for Fem. Rat (FR) % rem. 30′: female rat liver microsomes. On the procedure: (§1) Human, rat, dog, and monkey liver microsomes were isolated by differential centrifugation. Specimens of human liver were obtained from the International Institute for the Advancement of Medicine (Scranton, Pa.). The disappearance of the parent compound was studied in a mixture containing 5 uM compound, 0.5 mg/ml microsomal protein, and 2 mM NADPH in 50 mM K phosphate buffer, pH 7.4. Samples were incubated for 30 minutes at 37° C. The reaction was terminated by the addition of acetonitrile and compounds analyzed by LC-MS as described above.

Data set [2] in a line: In vitro metabolism: disappearance of parent compound in human liver microsomes. It counts as in vitro ADME. The following applies: 5 uM compound, 0.5 mg/ml protein, 2 mM NADPH, 30 minutes 37° C. The protocol: as §1
A general note: Liver microsomes are a subcellular fraction often used to study metabolism.

Another data set concerns the target T2, rat GnRH receptor (Rattus norvegicus, UniProt P30969).
T2 construct: or rat pituitaries (Pel Freez Biologicals, Rogers, Ark.) were homogenized; tissue Pel Freez Biologicals; host or cells: rat pituitaries (membrane preparation)
T2 sequence (P30969 1-327): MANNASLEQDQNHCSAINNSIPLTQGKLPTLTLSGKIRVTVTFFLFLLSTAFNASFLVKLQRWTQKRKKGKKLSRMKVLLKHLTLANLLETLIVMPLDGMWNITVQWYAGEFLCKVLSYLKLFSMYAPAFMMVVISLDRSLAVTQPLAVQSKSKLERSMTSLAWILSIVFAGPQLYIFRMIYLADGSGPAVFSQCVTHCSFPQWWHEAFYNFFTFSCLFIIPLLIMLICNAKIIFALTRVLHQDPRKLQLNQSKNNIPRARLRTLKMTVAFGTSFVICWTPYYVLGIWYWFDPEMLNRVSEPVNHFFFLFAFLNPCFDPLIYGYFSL
Description: Radioligand binding: inhibition of 125I-GnRH-A binding to rat GnRH receptor (rat pituitary membranes). The following applies: read-out: Ki (nM), Inhibition Binding of 125I-GnRH-A to GnRH Receptors. On the procedure:
HEK 293 cells containing mouse or human receptors, or rat pituitaries (Pel Freez Biologicals, Rogers, Ark.) were homogenized in buffer A containing: 50 mM Tris (pH 7.4), 0.32 M sucrose, 2 mM EGTA, 1 mM PMSF, 5 μg/ml aprotinen, 5 μg/ml Pepstatin A, and 1 μg/ml leupeptin. Homogenized cells were centrifuged at 4° C. at 20,000×g for 25 minutes, re-suspended in buffer A and re-centrifuged at 4° C. at 20,000×g for an additional 25 minutes. Total membrane protein was determined with a BCA kit (Pierce, Rockford, Ill.). Membranes were stored at −70° C. at a final membrane protein concentration of approximately 5 mg/ml.
The radioiodinated agonist analog of GnRH, [des-Gly^10,D-Ala^6]GnRH ethylamide (^125I-GnRH-A), was used as the radioligand. […] The reaction mixture was vortexed and incubated for 1 minute at room temperature. After one minute, the mixture was vortexed and allowed to incubate for an additional minute. 2 ml of 0.5 M acetic acid/1% BSA was added to the reaction tube and the mixture was added to a C18 Sep-Pak cartridge. The cartridge was washed with subsequent washes of 5 ml H2O and 5 ml 0.5 M acetic acid and then eluted with 5×1 ml of 60% CH3CN/40% 0.5 M acetic acid. The eluate was diluted with 3× volume of HPLC buffer A (0.1% TFA in H2O) and loaded onto a C18 column. The iodinated product was eluted over 20-25 min with a gradient of 25-100% CH3CN containing 0.1% TFA. The radioactive fractions (750 μl/fraction) were collected into clean polypropylene tubes containing 100 μl of 10% BSA. Fractions were assessed for biological activity by radioligand binding. Specific activity of the radioligand was approximately 2200 Ci/mmol.
Membranes were diluted to 0.01-0.5 mg/ml (depending upon the species of receptor) with assay buffer containing 50 mM HEPES (pH 7.4), 1 mM EDTA, 2.5 mM MgCl2, and 0.1% BSA. Membranes (diluted to utilize similar receptor numbers between assays) were incubated with approximately 0.04-0.06 nM ^125I-GnRH-A in the presence or absence of competing agents (0.1-10,000 nM) in a total volume of 200 μl in 96-well polypropylene plates for 1 hour at room temperature. Assays were stopped by rapid filtration onto 96-well GF/C filters soaked in 0.1% polyethylenimine (PEI) utilizing a Packard 96-well cell harvester. Filters were washed three times with ice-cold PBS (50 mM NaPO4, 0.9% NaCl, 2 mM MgCl2, and 0.02% NaN3, pH 7.4). 35 μl of scintillation cocktail was added to each filter well and filters were counted on a Packard Topcount. Control dose-response curves were generated to GnRH (0.1 nM-100 nM) in each competition binding experiment. Ki values were calculated from IC50 values according to Cheng et al., Biochemical Pharmacol. 22: 3099-3108, 1973. [formula]

A short description of data set [3]: In vitro metabolism: disappearance of parent compound in dog liver microsomes. It counts as in vitro ADME. The following applies: 5 uM compound, 30 minutes 37° C. On the procedure:
as §1

Data set [4] in a line: In vitro metabolism: disappearance of parent compound in monkey liver microsomes. It counts as in vitro ADME. The following applies: 5 uM compound, 30 minutes 37° C. The protocol: as §1

For the molecule `COc1nc(NCCN(C)C(=O)c2ccc(Cc3cc4c(cc3C)C(C)(C)OC4(C)C)o2)nc(OC)c1NC(=O)c1ccc(Cc2cc3c(cc2C)C(C)(C)OC3(C)C)o1` [Example D2], the results for the Ki on human GnRH receptors and at rat GnRH receptor were 14 nM and 11 nM, respectively. Further, the “Fem. Rat (FR) % rem. 30′” value in data set [1] was 84% and 82%. Further, the “Human % rem. 30′” value in data set [2] is 76% and 83%.
As for `COc1nc(NCCN2CCOCC2)nc(OC)c1NC(=O)c1ccc(Cc2cc3c(cc2C)C(C)(C)OC3(C)C)o1` [Example D4, N-{4,6-dimethoxy-2-[(2-morpholin-4-ylethyl)amino]pyrimidin-5-yl}-5-[(1,1,3,3,6-pentamethyl-1,3-dihydro-2-benzofuran-5-yl)methyl]-2-furamide], the “Dog % rem. 30′” value in data set [3] was 34%. Also, the values for the Ki at human GnRH receptors and on rat GnRH receptor were 6 nM and 4.1 nM, respectively. In addition, the “Fem. Rat (FR) % rem. 30′” value in data set [1] is on record as 76%. Also, the “Male Rat (MR) % rem. 30′” value in data set [1] (male rat liver microsomes) turned out to be 38%. Also, the Monkey % rem. in data set [4] amounted to 2%. Further, in data set [2], the “Human % rem. 30′” value was 83%.
For the molecule `COc1nc(NCC(c2ccc[nH]2)C(F)(F)F)nc(OC)c1NC(=O)c1ccc(Cc2cc3c(cc2C)C(C)(C)OC3(C)C)o1` (centres unmarked) [Example D57, N-(4,6-Dimethoxy-2-{[3,3,3-trifluoro-2-(1H-pyrrol-2-yl)propyl]amino}pyrimidin-5-yl)-5-[(1,1,3,3,6-pentamethyl-1,3-dihydro-2-benzofuran-5-yl)methyl]-2-furamide], the Ki (as a rule, a measure of affinity in units of concentration, obtained from inhibition or displacement) is 36 nM at human GnRH receptors and 4.4 nM on rat GnRH receptor.
For `COc1nc(NCCN(C)CCCCCO)nc(OC)c1NC(=O)c1ccc(Cc2cc3c(cc2C)C(C)(C)OC3(C)C)o1` [Example D58, N-[2-({2-[(5-Hydroxypentyl)(methyl)amino]ethyl}amino)-4,6-dimethoxypyrimidin-5-yl]-5-[(1,1,3,3,6-pentamethyl-1,3-dihydro-2-benzofuran-5-yl)methyl]-2-furamide], the inhibitory constant (Ki) at human GnRH receptors is 4.8 nM; at rat GnRH receptor, 3.1 nM.
Consider `COc1nc(N2CCc3nc(N(C)C)ncc3C2)nc(OC)c1NC(=O)c1ccc(Cc2cc3c(cc2C)C(C)(C)OC3(C)C)o1` [Example D59, N-{2-[2-(Dimethylamino)-7,8-dihydropyrido[4,3-d]pyrimidin-6(5H)-yl]-4,6-dimethoxypyrimidin-5-yl}-5-[(1,1,3,3,6-pentamethyl-1,3-dihydro-2-benzofuran-5-yl)methyl]-2-furamide], for which the Ki at human GnRH receptors is 42 nM; on rat GnRH receptor, 14 nM.
As for `CNCCCNc1nc(OC)c(NC(=O)c2ccc(Cc3cc4c(cc3C)C(C)(C)OC4(C)C)o2)c(OC)n1` [Example D60, N-(4,6-Dimethoxy-2-{[3-(methylamino)propyl]amino}-5-pyrimidinyl)-5-[(1,1,3,3,6-pentamethyl-1,3-dihydro-2-benzofuran-5-yl)methyl]-2-furamide], the Ki on human GnRH receptors was determined as 1 nM; at rat GnRH receptor, 0.32 nM.
As to `COc1nc(NCc2c(F)cccc2F)nc(OC)c1NC(=O)c1ccc(Cc2cc3c(cc2C)C(C)(C)OC3(C)C)o1` [Example D73, N-{2-[(2,6-difluorobenzyl)amino]-4,6-dimethoxypyrimidin-5-yl}-5-[(1,1,3,3,6-pentamethyl-1,3-dihydro-2-benzofuran-5-yl)methyl]-2-furamide], the Ki on human GnRH receptors turned out to be 4 nM; on rat GnRH receptor, 2.6 nM.
Take `COCCNc1nc(OC)c(NC(=O)c2ccc(Cc3cc4c(cc3C)C(C)(C)OC4(C)C)o2)c(OC)n1` [Example D74]: the Ki on human GnRH receptors is 3 nM; on rat GnRH receptor it was 1.1 nM.
In the case of `COc1nc(NCCCN(C)C)nc(OC)c1NC(=O)c1ccc(Cc2c(C)cc(C)c3c2OCC3(C)C)o1` [Example H4, N-(2-{[3-(Dimethylamino)propyl]amino}-4,6-dimethoxypyrimidin-5-yl)-5-[(3,3,4,6-tetramethyl-2,3-dihydro-1-benzofuran-7-yl)methyl]-2-furamide], the Ki on human GnRH receptors came to 13 nM; at rat GnRH receptor, 16 nM.
`COc1nc(NCCCN2CCN(C)CC2)nc(OC)c1NC(=O)c1ccc(Cc2c(C)cc(C)c3c2OCC3(C)C)o1` [Example H5]: the Ki at human GnRH receptors is 11 nM; at rat GnRH receptor, 8.2 nM.
Regarding `COc1nc(NCCCN2CCOCC2)nc(OC)c1NC(=O)c1ccc(Cc2c(C)cc(C)c3c2OCC3(C)C)o1` [Example H6, N-{4,6-Dimethoxy-2-[(3-morpholin-4-ylpropyl)amino]-pyrimidin-5-yl}-5-[(3,3,4,6-tetramethyl-2,3-dihydro-1-benzofuran-7-yl)methyl]-2-furamide], the Ki on human GnRH receptors and at rat GnRH receptor was 12 nM each time.
Take `COc1nc(NCCCN2CCOCC2)nc(OC)c1NC(=O)c1ccc(Cc2c(C)cc3c(c2C)C(C)(C)CCO3)o1` [Example I1, N-{4,6-Dimethoxy-2-[(3-morpholin-4-ylpropyl)amino]pyrimidin-5-yl}-5-[(4,4,5,7-tetramethyl-3,4-dihydro-2H-chromen-6-yl)methyl]-2-furamide]: the results for the Ki at human GnRH receptors and on rat GnRH receptor were 27 nM and 26 nM, respectively.
For the molecule `COc1nc(NCCCN2CCN(C)CC2)nc(OC)c1NC(=O)c1ccc(Cc2c(C)cc3c(c2C)C(C)(C)CCO3)o1` [Example I2, N-(4,6-Dimethoxy-2-{[3-(4-methylpiperazin-1-yl)propyl]amino}pyrimidin-5-yl)-5-[(4,4,5,7-tetramethyl-3,4-dihydro-2H-chromen-6-yl)methyl]-2-furamide], the Ki at human GnRH receptors turned out to be 24 nM; at rat GnRH receptor, 16 nM.
`COc1nc(NCCCN(C)C)nc(OC)c1NC(=O)c1ccc(Cc2c(C)cc3c(c2C)C(C)(C)CCO3)o1` [Example I3, N-(2-{[3-(Dimethylamino)propyl]amino}-4,6-dimethoxypyrimidin-5-yl)-5-[(4,4,5,7-tetramethyl-3,4-dihydro-2H-chromen-6-yl)methyl]-2-furamide]: the inhibition constant Ki at human GnRH receptors was 36 nM; at rat GnRH receptor, 22 nM.
